In publication PMC12406203 (Journal of Medicinal Chemistry, 2025):

Legend:
Test in all cases: KINOMEscan
Assay type in all cases: binding
ABL1-nonphosphorylated = target: T1, ABL1-nonphosphorylated (Homo sapiens, UniProt P00519)
T1 construct: purchased Eurofins DiscoverX, LLC; host or cells: E. coli BL21-derived (T7 phage) or HEK-293

ALK = target: T2, ALK (Homo sapiens, UniProt Q9UM73)
T2 construct: purchased Eurofins DiscoverX, LLC; host or cells: E. coli BL21-derived (T7 phage) or HEK-293

AURKA = target: T3, AURKA (Homo sapiens, UniProt O14965)
T3 construct: purchased Eurofins DiscoverX, LLC; host or cells: E. coli BL21-derived (T7 phage) or HEK-293
T3 sequence (O14965 1-403): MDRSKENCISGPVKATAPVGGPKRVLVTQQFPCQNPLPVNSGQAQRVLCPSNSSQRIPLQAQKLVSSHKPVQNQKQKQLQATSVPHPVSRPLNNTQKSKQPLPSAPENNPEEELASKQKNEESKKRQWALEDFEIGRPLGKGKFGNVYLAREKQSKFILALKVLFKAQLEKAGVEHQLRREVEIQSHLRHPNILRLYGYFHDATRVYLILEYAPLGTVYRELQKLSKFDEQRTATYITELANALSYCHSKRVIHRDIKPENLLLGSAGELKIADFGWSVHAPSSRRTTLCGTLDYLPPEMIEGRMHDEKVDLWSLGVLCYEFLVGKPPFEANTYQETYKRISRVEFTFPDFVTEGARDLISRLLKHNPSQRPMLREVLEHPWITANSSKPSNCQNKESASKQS

BRAF = target: T4, BRAF (Homo sapiens, UniProt P15056)
T4 construct: purchased Eurofins DiscoverX, LLC; host or cells: E. coli BL21-derived (T7 phage) or HEK-293

DYRK1B = target: T5, DYRK1B (Homo sapiens, UniProt Q9Y463)
T5 construct: purchased Eurofins DiscoverX, LLC; host or cells: E. coli (T7 phage) or HEK-293

EPHA2 = target: T6, EPHA2 (Homo sapiens, UniProt P29317)
T6 construct: purchased Eurofins DiscoverX, LLC; host or cells: E. coli (T7 phage) or HEK-293

ERK1 = target: T7, ERK1 (Homo sapiens, UniProt P27361)
T7 construct: purchased Eurofins DiscoverX, LLC; host or cells: E. coli (T7 phage) or HEK-293

MAPKAPK2 = target: T8, MAPKAPK2 (Homo sapiens, UniProt P49137)
T8 construct: purchased Eurofins DiscoverX, LLC; host or cells: E. coli (BL21-derived, T7 phage) or HEK-293

PRKCE = target: T9, PRKCE (Homo sapiens, UniProt Q02156)
T9 construct: purchased Eurofins DiscoverX, LLC; host or cells: E. coli BL21-derived host (T7 phage) or HEK-293
T9 sequence (Q02156 1-737): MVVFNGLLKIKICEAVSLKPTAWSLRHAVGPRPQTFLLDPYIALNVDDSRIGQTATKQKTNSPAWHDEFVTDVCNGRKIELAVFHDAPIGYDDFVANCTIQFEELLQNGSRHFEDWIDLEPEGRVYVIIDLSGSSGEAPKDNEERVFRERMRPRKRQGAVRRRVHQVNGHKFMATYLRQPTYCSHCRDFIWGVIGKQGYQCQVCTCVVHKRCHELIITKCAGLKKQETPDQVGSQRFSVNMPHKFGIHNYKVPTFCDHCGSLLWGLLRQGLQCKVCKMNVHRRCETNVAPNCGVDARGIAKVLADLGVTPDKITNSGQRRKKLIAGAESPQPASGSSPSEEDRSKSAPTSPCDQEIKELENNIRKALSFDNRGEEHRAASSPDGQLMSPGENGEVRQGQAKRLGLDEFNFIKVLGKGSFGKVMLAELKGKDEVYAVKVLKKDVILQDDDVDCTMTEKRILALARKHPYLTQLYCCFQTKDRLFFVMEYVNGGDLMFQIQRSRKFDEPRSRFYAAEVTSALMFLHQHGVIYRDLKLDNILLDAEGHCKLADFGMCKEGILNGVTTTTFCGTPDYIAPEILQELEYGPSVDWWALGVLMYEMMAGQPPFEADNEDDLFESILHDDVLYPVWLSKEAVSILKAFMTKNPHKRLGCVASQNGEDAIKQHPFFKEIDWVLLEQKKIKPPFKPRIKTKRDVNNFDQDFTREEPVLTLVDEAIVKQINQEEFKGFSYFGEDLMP

RET = target: T10, RET (Homo sapiens, UniProt P07949)
T10 construct: purchased Eurofins DiscoverX, LLC; host or cells: E. coli BL21-derived host (T7 phage) or HEK-293

[1] = target: T11, TYK2(JH1domain-catalytic) (Homo sapiens, UniProt P29597)
T11 construct: TYK2(JH1domain-; purchased Eurofins DiscoverX, LLC; host or cells: E. coli BL21-derived host (T7 phage) or HEK-293
T11 sequence (P29597 897-1176 limits assumed): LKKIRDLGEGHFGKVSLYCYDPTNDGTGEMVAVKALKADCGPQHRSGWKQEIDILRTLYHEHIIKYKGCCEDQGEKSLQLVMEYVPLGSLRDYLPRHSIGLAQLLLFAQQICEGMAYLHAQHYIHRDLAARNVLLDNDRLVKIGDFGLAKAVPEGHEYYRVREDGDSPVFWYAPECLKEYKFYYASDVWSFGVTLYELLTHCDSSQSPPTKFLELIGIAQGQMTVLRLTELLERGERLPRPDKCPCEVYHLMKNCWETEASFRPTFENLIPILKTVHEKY

T8 sequence (P49137 whole entry): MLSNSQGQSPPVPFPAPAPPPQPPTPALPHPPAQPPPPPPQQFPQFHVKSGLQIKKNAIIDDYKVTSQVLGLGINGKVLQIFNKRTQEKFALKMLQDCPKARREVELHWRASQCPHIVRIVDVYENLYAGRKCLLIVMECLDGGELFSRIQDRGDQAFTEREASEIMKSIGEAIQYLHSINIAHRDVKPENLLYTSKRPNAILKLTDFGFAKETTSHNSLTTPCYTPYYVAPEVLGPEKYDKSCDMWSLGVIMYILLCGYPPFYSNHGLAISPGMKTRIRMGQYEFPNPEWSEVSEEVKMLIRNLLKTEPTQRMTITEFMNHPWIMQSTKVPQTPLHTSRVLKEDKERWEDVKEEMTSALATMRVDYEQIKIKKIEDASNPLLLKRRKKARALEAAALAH
T6 sequence (P29317 24-976): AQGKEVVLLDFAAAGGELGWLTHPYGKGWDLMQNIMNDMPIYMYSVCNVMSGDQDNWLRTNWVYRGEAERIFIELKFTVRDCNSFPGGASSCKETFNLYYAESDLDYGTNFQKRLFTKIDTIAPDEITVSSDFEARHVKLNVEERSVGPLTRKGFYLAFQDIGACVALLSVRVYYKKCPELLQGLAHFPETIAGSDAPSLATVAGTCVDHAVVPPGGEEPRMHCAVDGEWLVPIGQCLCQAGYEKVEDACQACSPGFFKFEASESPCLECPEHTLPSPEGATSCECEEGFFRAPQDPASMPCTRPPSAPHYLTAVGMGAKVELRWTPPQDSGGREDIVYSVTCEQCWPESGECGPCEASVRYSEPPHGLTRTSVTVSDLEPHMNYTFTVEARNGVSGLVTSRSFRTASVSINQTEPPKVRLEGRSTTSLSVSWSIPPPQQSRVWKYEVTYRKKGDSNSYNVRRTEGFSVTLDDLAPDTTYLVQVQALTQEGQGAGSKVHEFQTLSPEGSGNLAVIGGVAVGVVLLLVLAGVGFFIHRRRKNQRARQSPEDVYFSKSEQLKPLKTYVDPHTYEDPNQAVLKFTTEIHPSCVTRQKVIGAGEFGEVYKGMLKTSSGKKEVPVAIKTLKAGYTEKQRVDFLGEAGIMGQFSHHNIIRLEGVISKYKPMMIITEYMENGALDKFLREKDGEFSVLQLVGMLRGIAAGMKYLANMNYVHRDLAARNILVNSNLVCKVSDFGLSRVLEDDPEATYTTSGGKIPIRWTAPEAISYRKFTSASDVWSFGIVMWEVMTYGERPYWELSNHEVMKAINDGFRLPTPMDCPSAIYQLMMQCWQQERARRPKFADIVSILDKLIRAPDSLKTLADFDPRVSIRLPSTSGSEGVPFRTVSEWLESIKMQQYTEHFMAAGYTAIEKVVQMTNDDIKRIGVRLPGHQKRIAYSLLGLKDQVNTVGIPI
T10 sequence (P07949 29-1114): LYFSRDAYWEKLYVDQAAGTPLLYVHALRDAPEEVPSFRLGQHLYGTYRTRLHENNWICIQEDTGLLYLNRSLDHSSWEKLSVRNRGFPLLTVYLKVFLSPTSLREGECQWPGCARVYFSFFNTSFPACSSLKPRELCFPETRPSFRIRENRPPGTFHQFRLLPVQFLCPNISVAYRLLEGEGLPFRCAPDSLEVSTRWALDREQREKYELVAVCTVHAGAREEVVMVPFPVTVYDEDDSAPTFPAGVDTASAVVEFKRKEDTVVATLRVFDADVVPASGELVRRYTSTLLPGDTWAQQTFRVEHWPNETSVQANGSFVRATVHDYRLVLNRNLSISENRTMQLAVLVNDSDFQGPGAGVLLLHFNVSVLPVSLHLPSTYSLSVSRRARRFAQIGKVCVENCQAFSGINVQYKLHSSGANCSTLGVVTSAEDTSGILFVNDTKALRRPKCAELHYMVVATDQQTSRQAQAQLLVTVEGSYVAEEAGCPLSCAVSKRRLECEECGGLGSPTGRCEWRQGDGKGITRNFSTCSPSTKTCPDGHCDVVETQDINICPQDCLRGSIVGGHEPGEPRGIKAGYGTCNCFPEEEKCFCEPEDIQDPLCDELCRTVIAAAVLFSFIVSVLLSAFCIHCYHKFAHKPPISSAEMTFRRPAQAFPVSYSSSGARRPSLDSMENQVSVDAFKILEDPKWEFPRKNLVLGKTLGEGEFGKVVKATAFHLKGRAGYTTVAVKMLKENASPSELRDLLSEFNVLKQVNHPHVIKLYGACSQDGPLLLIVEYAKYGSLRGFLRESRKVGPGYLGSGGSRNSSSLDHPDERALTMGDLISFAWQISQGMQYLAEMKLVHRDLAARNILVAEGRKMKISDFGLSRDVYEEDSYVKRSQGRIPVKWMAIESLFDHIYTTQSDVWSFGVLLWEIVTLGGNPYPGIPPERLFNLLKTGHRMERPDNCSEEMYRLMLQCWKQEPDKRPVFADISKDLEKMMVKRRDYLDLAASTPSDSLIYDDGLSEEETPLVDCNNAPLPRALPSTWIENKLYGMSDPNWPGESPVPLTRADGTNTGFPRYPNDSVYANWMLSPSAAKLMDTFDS
T7 sequence (P27361 whole entry): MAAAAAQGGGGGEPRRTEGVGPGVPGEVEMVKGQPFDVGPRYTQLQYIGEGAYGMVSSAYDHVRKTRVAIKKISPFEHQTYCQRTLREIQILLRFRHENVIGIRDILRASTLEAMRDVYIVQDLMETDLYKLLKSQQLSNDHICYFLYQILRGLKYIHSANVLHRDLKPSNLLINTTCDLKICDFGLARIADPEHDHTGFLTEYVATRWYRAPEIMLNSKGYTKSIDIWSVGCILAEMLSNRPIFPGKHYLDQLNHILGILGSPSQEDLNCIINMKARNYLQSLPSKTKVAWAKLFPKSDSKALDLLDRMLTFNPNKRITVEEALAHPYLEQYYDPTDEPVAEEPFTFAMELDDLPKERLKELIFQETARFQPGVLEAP
T2 sequence (Q9UM73 19-1620): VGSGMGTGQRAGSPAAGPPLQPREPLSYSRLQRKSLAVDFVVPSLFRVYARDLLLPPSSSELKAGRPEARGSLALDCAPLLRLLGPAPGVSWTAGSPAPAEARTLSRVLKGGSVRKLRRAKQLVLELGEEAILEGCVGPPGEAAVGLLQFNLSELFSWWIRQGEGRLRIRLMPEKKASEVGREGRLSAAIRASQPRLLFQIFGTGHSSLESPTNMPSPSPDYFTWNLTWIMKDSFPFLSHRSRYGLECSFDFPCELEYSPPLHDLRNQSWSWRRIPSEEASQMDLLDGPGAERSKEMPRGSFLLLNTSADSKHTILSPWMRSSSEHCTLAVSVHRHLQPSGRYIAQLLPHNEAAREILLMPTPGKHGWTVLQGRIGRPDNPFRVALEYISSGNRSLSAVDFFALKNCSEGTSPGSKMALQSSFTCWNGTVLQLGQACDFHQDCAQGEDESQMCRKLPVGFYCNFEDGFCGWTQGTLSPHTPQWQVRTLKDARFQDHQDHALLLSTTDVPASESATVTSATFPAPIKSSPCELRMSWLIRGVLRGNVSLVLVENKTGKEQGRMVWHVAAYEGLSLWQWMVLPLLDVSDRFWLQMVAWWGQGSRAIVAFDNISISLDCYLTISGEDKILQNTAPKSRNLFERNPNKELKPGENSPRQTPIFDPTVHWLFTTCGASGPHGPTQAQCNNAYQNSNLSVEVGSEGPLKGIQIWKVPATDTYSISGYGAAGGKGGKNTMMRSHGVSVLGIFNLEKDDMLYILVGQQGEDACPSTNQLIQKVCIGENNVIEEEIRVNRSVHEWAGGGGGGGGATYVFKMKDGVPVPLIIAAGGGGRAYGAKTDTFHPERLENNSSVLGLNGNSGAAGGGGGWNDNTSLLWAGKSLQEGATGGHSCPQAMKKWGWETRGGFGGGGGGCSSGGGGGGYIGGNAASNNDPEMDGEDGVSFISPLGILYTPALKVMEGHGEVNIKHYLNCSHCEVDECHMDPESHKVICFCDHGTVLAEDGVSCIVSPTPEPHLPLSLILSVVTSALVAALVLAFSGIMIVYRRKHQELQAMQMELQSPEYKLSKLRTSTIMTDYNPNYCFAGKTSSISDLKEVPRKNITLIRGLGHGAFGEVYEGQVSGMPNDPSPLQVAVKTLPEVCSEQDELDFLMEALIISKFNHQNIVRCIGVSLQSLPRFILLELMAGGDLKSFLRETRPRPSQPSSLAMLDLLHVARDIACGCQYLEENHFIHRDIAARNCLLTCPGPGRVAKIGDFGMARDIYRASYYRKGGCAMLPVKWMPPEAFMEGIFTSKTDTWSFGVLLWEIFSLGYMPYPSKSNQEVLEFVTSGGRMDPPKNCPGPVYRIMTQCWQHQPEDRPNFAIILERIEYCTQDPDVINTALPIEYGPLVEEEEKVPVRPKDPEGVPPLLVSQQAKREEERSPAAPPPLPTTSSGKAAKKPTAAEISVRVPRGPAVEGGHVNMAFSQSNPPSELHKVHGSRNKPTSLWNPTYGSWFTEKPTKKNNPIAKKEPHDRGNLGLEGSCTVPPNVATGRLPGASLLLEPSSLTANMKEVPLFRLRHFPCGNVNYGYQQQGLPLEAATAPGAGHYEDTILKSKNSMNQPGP
T5 sequence (Q9Y463 whole entry): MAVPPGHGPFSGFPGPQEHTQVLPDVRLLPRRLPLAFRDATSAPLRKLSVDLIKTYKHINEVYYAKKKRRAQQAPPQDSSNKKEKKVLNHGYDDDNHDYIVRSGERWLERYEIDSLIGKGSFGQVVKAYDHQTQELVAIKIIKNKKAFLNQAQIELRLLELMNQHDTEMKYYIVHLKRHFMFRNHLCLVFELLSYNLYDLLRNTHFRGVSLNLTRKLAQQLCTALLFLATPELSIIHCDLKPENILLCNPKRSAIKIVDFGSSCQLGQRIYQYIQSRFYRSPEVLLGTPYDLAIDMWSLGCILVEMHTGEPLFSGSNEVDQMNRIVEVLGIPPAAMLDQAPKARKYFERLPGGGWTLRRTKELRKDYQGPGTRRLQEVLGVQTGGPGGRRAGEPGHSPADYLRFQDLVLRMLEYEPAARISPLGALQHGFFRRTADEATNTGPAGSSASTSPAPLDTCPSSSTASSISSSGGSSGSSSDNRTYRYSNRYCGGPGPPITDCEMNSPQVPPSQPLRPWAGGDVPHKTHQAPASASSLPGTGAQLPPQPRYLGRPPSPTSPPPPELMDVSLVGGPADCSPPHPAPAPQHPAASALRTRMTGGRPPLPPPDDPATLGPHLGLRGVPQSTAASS

| SMILES | RA @ 1000nM (ABL1-nonphosphorylated) | RA @ 10000nM (ABL1-nonphosphorylated) | RA @ 1000nM (ALK) | RA @ 10000nM (ALK) | RA @ 1000nM (AURKA) | RA @ 10000nM (AURKA) | RA @ 1000nM (BRAF) | RA @ 10000nM (BRAF) | RA @ 1000nM (DYRK1B) | RA @ 10000nM (DYRK1B) | RA @ 1000nM (EPHA2) | RA @ 10000nM (EPHA2) | RA @ 1000nM (ERK1) | RA @ 10000nM (ERK1) | RA @ 1000nM (MAPKAPK2) | RA @ 10000nM (MAPKAPK2) | RA @ 1000nM (PRKCE) | RA @ 10000nM (PRKCE) | RA @ 1000nM (RET) | RA @ 10000nM (RET) | also measured |
| --- | --- | --- | --- | --- | --- | --- | --- | --- | --- | --- | --- | --- | --- | --- | --- | --- | --- | --- | --- | --- | --- |
| CN(C)CCNC(=O)c1cc2c(cnn2CC2CCCCC2)cc1Cc1ccc(F)cc1F [Compound 95, 1-(Cyclohexylmethyl)-5-(2,4-difluorobenzyl)-N-(2-(dimethylamino)ethyl)-1H-indazole-6-carboxamide] | 90% | 90% | 62% | 92% | 95% | 93% | 100% | 100% | 95% | 100% | 100% | 100% | 96% | 90% | 100% | 100% | 79% | 76% | 100% | 100% | RA @ 1000nM [1]: 89%; RA @ 10000nM [1]: 75% |
| CC(C)Cn1ncc2cc(Cc3ccc(F)cc3F)c(C(=O)NCCN(C)C)cc21 [Compound 94, 5-(2,4-Difluorobenzyl)-N-(2-(dimethylamino)ethyl)-1-isobutyl-1H-indazole-6-carboxamide] | 85% | 97% | 93% | 83% | 96% | 93% | 100% | 100% | 100% | 85% | 97% | 100% | 87% | 87% | 100% | 84% | 80% | 80% | 100% | 100% | RA @ 1000nM [1]: 78%; RA @ 10000nM [1]: 79% |
